According to article PMC12775434, “Ultra-large virtual screening unveils potent agonists of the neuromodulatory orphan receptor GPR139” (Nature Communications, 2025):
Where “and” joins values, the source holds several entries; their conditions need not be identical. Equal values may be shown once.

Legend:
[1] = target: T1, human muscarinic acetylcholine M1 receptor (M1R) (Homo sapiens, UniProt P11229); test: Ca2+ mobilization counter-screen in M1R-CHOk1 cells; format: cell-based; conditions: individual replicates (Supplementary Figure 2);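 note: 10 µM test compound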
T1 sequence (P11229 1-460): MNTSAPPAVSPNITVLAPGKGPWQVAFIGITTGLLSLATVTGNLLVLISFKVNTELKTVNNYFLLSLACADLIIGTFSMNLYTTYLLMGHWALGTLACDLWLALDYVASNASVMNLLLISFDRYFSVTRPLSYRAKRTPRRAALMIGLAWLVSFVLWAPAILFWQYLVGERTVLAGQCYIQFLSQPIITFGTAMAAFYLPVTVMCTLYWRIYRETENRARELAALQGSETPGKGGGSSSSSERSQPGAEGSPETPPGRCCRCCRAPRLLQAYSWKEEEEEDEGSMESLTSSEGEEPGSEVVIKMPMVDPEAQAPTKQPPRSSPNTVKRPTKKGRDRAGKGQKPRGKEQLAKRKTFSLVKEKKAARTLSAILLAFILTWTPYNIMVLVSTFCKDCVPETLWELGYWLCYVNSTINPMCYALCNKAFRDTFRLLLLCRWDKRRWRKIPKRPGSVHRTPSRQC
How it was run: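 Counter-screen used CHO-K1 cells stably carrying human M1R, Fluo-4 AM-loaded (2 µM, 1 h, 37 °C). Calcium signal measured at 485/525 nm after compound addition.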

[2] = target: T2, GPR139 (Homo sapiens, UniProt Q6DWJ6); test: Ca2+ mobilization assay, antagonist mode (EC80 800 nM Lundbeck Cmp 1a after 20 min preincubation), GPR139-CHOk1; format: cell-based; conditions: individual replicates (Supplementary Figure 1)
T2 sequence (Q6DWJ6 1-353): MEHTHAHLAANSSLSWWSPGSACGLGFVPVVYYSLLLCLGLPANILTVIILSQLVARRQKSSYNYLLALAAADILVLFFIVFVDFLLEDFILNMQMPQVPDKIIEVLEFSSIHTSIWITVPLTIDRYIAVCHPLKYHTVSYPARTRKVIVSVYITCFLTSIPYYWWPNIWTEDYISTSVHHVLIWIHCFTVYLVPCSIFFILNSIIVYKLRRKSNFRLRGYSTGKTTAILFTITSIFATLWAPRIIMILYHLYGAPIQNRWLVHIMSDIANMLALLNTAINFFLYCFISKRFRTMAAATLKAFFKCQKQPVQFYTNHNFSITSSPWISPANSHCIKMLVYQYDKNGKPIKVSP
How it was run: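 Antagonist mode: 800 nM (EC80) reference agonist Lundbeck Cmp 1a added following 20 min pre-incubation with 10 µM compound. GPR139-CHOk1 cells, Fluo-4 dye, probenecid-containing HEPES buffer pH 7.4; intracellular Ca2+ measured at 37 °C (ex 485, em 525 nm).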

[3] = target: T2, GPR139; test: Ca2+ mobilization assay, agonist mode, stable GPR139-CHOk1 cell line; format: cell-based
How it was run: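 Agonist activity of compounds is assessed in stably transfected CHO-K1 cells using the calcium dye Fluo-4 at 37 °C in HEPES-buffered HBSS (pH 7.4). Efficacy is expressed relative to the reference agonist Lundbeck Cmp 1a, set as 100%.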

[4] = system: patients with schizophrenia and major depressive disorder; conditions: cited from earlier work
[5] = target: T2, GPR139; test: Inositol monophosphate (IP1) accumulation assay, GPR139-CHOk1; format: cell-based; conditions: for IP1 response (% of Cmp 1a): replicate experiments
Description: Primary screening and pharmacological characterization of compounds were performed using a CHO-K1 cell line that stably expresses human GPR139 (GPR139-CHOk1). The GPR139-CHOk1 cell line was kindly provided by H. Lundbeck A/S, Denmark[24]. GPR139-CHOk1 cells were grown in Ham’s F-12 Kaighn’s Modification Medium (ThermoFisher #21127030) supplemented with 10% dialyzed fetal bovine serum (US origin, ThermoFisher #26400044), 100 units/mL Penicillin-Streptomycin (ThermoFisher #15140122), and 1 mg/mL Geneticin (ThermoFisher #11811031). […] M1R-CHOk1 cells were purchased from The Missouri S&T cDNA Resource Center (#CEM100TN00). M1R-CHOk1 cells were grown in Ham’s F12 Medium (ThermoFisher #21765029) supplemented with 10% fetal bovine serum (Brazilian origin, ThermoFisher #10270106), 100 units/mL Penicillin-Streptomycin, and 0.25 mg/mL Geneticin. HEK293A cells transiently transfected with GPR139 were used for additional pharmacological assessment of signaling pathways activated by GPR139. HEK239A cells were generously provided by Dr. Asuka Inoue, Tohoku University, Japan. HEK293A cells were grown in Dulbecco’s Modified Eagle Medium (ThermoFisher #31966047) supplemented with 10% dialyzed fetal bovine serum and 100 units/mL Penicillin-Streptomycin. Cell lines were maintained at 37 °C in humidified incubator equilibrated with 5% CO2.
HTRF IP-One Gq kit (Cisbio #62IPAPEC) was used to detect the accumulation of inositol monophosphate (IP1) as described in the work by Shehata et al.[26]. GPR139-CHOk1 cells were dissociated and resuspended in HEPES buffer. 50,000 cells in 5 µL and 5 µL test compounds diluted from DMSO stocks (final DMSO concentration of maximally 0.3%) in HEPES buffer supplemented with 40 mM LiCl were mixed in each well of white 384-well OptiPlate (PerkinElmer #6007290). The cells were incubated for 1 h at 37 °C. Then, 10 µL detection reagent composed of 2.5% Eu3 + -anti-IP1 antibody and 2.5% IP1-d2 diluted in lysis buffer was added, and the cells were incubated for 1 h at room temperature before measurements. Measurements were performed on EnVision Multimode Plate Reader (PerkinElmer) using excitation light of 340 nm and emission light of 615 nm and 665 nm. The time resolved-fluorescence resonance energy transfer (TR-FRET) 665 nm/615 nm ratio, which is inversely proportional to the IP1 accumulation, was used to determine the IP1 response.
Pharmacological data and statistical analyses were performed in GraphPad Prism v9–10 (Graphpad Software Inc., San Diego, CA), which are also specifically described in the figure and table legends. The functional assay responses were normalized to buffer (0%) and Lundbeck Cmp 1a or JNJ-63533054 (100%), for Ca^2+ and IP1 experiments in the GPR139-CHOk1 stable cell line or Ca^2+, G protein activation, and arrestin-3 recruitment experiments in the HEK293A cells transiently transfected with GPR139, respectively. Data are from at least three independent experiments, unless stated otherwise. Concentration-response curves were fitted applying non-linear regression using the log (agonist) versus response model with variable slope. ANOVA was applied for comparing results and determining statistical significance. Comparison of responses to the reference was performed using one-way ANOVA with Dunnett’s multiple comparisons test at significance threshold of p < 0.05. Comparison of responses across assays and ligands was performed using two-way ANOVA with Tukey’s multiple comparisons test at a significance threshold of p < 0.05.

CCOc1ccc(C(=O)OCC(=O)N[C@H](C)c2ccccc2)cc1 [Compound 14, CCOC=1C=CC(=CC1)C(=O)OCC(=O)N[C@H](C)C=2C=CC=CC2]
Ca2+ signal (% of Carbachol) [1]: -14 % of Carbachol and 13 % of Carbachol
Ca2+ signal (% of Cmp 1a) [2]: 75.8591 % of Cmp 1a and 82.1128 % of Cmp 1a and 79.0278 % of Cmp 1a
Ca2+ signal (% of Cmp 1a) ([3]; 0.1 µM, individual replicates (Supplementary Figure 3)): 1.0 % of Cmp 1a and -0.9 % of Cmp 1a
Ca2+ signal (% of Cmp 1a) ([3]; 1 µM, individual replicates (Supplementary Figure 3)): -7.4 % of Cmp 1a and 2.7 % of Cmp 1a
Ca2+ signal (% of Cmp 1a) ([3]; 10 µM, individual replicates (Supplementary Figure 3)): 15.1 % of Cmp 1a and 12.7 % of Cmp 1a
Ca2+ signal (% of Cmp 1a) ([3]; Agonist mode, individual replicates (Supplementary Figure 1)): 37 % of Cmp 1a and 14 % of Cmp 1a and 31 % of Cmp 1a

C[C@H](NC(=O)Cn1nnc2ccccc2c1=O)c1ccc(OC(F)(F)F)cc1 [TAK-041, reference compound]
outcome of phase II trials ([4]; anhedonia in schizophrenia and major depressive disorder): did not meet the primary endpoints
safety and tolerability [4]: good safety profile and was well tolerated
Emax ([5]; Supplementary Table 4, normalized to Lundbeck Cmp 1a, read-out: Emax (%), IP1 accumulation): 101 ± 9%
IP1 response (% of Cmp 1a) ([5]; log [Compound] M -4.5): 112 % of Cmp 1a and 93 % of Cmp 1a and 83 % of Cmp 1a and 114 % of Cmp 1a
IP1 response (% of Cmp 1a) ([5]; log [Compound] M -5.0): 115 % of Cmp 1a and 78 % of Cmp 1a and 92 % of Cmp 1a and 118 % of Cmp 1a
IP1 response (% of Cmp 1a) ([5]; log [Compound] M -5.5): 87 % of Cmp 1a and 81 % of Cmp 1a and 75 % of Cmp 1a and 93 % of Cmp 1a
IP1 response (% of Cmp 1a) ([5]; log [Compound] M -6.0): 84 % of Cmp 1a and 66 % of Cmp 1a and 75 % of Cmp 1a and 94 % of Cmp 1a
IP1 response (% of Cmp 1a) ([5]; log [Compound] M -6.5): 86 % of Cmp 1a and 56 % of Cmp 1a and 45 % of Cmp 1a and 98 % of Cmp 1a
IP1 response (% of Cmp 1a) ([5]; log [Compound] M -7.0): 63 % of Cmp 1a (2×) and 41 % of Cmp 1a and 62 % of Cmp 1a
IP1 response (% of Cmp 1a) ([5]; log [Compound] M -7.5): 51 % of Cmp 1a and 26 % of Cmp 1a and 33 % of Cmp 1a and 49 % of Cmp 1a
IP1 response (% of Cmp 1a) ([5]; log [Compound] M -8.0): 28 % of Cmp 1a and -3.49 % of Cmp 1a and 8 % of Cmp 1a and 21 % of Cmp 1a
Ca2+ signal (% of Cmp 1a) ([3]; log [Compound] M -5.5, replicate experiments): 99 % of Cmp 1a and 95 % of Cmp 1a and 92 % of Cmp 1a
Ca2+ signal (% of Cmp 1a) ([3]; log [Compound] M -6.0, replicate experiments): 80 % of Cmp 1a and 94 % of Cmp 1a and 83 % of Cmp 1a
Ca2+ signal (% of Cmp 1a) ([3]; log [Compound] M -6.5, replicate experiments): 83 % of Cmp 1a and 80 % of Cmp 1a (2×)
Ca2+ signal (% of Cmp 1a) ([3]; log [Compound] M -7.0, replicate experiments): 63 % of Cmp 1a and 62 % of Cmp 1a (2×)
Ca2+ signal (% of Cmp 1a) ([3]; log [Compound] M -7.5, replicate experiments): 35 % of Cmp 1a and 36 % of Cmp 1a and 41 % of Cmp 1a
Ca2+ signal (% of Cmp 1a) ([3]; log [Compound] M -8.0, replicate experiments): 16 % of Cmp 1a and 11 % of Cmp 1a and 17 % of Cmp 1a
Ca2+ signal (% of Cmp 1a) ([3]; log [Compound] M -8.5, replicate experiments): 0 % of Cmp 1a
Ca2+ signal (% of Cmp 1a) ([3]; log [Compound] M -9.0, replicate experiments): 0 % of Cmp 1a
Ca2+ signal (% of Cmp 1a) ([3]; log [Compound] M = -5.5, individual replicate columns): 99 % of Cmp 1a and 95 % of Cmp 1a and 92 % of Cmp 1a
Ca2+ signal (% of Cmp 1a) ([3]; log [Compound] M = -6.0, individual replicate columns): 80 % of Cmp 1a and 94 % of Cmp 1a and 83 % of Cmp 1a
Ca2+ signal (% of Cmp 1a) ([3]; log [Compound] M = -6.5, individual replicate columns): 83 % of Cmp 1a and 80 % of Cmp 1a (2×)
Ca2+ signal (% of Cmp 1a) ([3]; log [Compound] M = -7.0, individual replicate columns): 63 % of Cmp 1a and 62 % of Cmp 1a (2×)
Ca2+ signal (% of Cmp 1a) ([3]; log [Compound] M = -7.5, individual replicate columns): 35 % of Cmp 1a and 36 % of Cmp 1a and 41 % of Cmp 1a
Ca2+ signal (% of Cmp 1a) ([3]; log [Compound] M = -8.0, individual replicate columns): 16 % of Cmp 1a and 11 % of Cmp 1a and 17 % of Cmp 1a
Ca2+ signal (% of Cmp 1a) ([3]; log [Compound] M = -8.5, individual replicate columns): 0 % of Cmp 1a
Ca2+ signal (% of Cmp 1a) ([3]; log [Compound] M = -9.0, individual replicate columns): 0 % of Cmp 1a
Emax ([3]; read-out: Emax (%), Ca2+ mobilization): 100 ± 3%
